According to ChEMBL document CHEMBL1141244, “Sulfonamide chalcone as a new class of alpha-glucosidase inhibitors” (Bioorg Med Chem Lett, 2005):
The source made the active and inactive calls. The calls are words filed in the database; no cut-off is given here.

Experiments:
Saccharomyces cerevisiae = test: Inhibitory activity against baker's yeast alpha glucosidase at 200 uM
[1] = target: Alpha-amylase (Bacillus licheniformis) (UniProt P06278); test: Inhibitory activity against Bacillus licheniformis alpha amylase at 200 uM
Sequence of Alpha-amylase (Bacillus licheniformis) (P06278 whole entry): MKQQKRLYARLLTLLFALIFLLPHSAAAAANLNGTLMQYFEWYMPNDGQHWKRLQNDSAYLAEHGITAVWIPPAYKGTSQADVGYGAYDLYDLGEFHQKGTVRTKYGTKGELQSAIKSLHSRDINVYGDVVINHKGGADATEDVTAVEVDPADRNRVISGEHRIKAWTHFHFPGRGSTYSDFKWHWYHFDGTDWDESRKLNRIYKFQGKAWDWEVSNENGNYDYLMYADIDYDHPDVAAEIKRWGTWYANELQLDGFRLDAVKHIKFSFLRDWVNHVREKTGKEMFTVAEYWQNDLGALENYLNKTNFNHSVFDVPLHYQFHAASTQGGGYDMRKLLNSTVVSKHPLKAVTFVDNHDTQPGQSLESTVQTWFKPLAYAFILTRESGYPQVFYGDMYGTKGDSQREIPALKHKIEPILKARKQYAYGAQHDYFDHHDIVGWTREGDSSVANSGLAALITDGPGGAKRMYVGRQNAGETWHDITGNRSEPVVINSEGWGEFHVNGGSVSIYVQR

[2] = target: Beta-amylase (Hordeum vulgare) (UniProt P16098); test: Inhibitory activity against barley beta amylase at 200 uM
Sequence of Beta-amylase (Hordeum vulgare) (P16098 whole entry): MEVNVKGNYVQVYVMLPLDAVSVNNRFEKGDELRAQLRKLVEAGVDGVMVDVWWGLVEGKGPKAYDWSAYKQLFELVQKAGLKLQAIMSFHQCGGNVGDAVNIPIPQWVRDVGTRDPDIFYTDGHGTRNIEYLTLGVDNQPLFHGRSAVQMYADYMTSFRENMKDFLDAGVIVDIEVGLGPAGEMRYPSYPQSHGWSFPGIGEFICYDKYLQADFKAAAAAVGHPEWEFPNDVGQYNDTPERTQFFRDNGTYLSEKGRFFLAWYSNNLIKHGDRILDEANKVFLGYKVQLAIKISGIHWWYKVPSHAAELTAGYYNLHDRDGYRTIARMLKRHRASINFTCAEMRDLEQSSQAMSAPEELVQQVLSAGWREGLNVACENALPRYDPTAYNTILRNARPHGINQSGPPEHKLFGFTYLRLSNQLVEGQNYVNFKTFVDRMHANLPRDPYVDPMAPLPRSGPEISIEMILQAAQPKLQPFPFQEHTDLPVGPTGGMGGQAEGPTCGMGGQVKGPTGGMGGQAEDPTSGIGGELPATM

Beta-amylase = Beta-amylase (Hordeum vulgare, UniProt P16098); test: Inhibitory activity against barley beta amylase
Sequence of Beta-amylase (P16098 whole entry): as above

Alpha-amylase = Alpha-amylase (Bacillus licheniformis, UniProt P06278); test: Inhibitory activity against Bacillus licheniformis alpha amylase
Sequence of Alpha-amylase (P06278 whole entry): as the sequence (P06278 whole entry) above

[3] = Inhibitory activity against baker's yeast alpha glucosidase; parameters: species or system Saccharomyces cerevisiae

SMILES | Activity (Saccharomyces cerevisiae) | Activity [1] | Activity [2] | IC50 [3] | also measured
O=C(/C=C/c1ccc(O)cc1O)c1ccccc1 | inactive | inactive | inactive | – | –
O=C(/C=C/c1ccc(O)c(O)c1)c1ccccc1 | inactive | inactive | inactive | – | –
O=C(/C=C/c1ccc(O)cc1)c1ccccc1 | inactive | inactive | inactive | – | –
Cc1ccc(S(=O)(=O)Nc2cccc(C(=O)/C=C/c3ccc(O)cc3)c2)cc1 | – | – | – | 12.4 µM | IC50 (Beta-amylase; read-out: IC50): 201 µM; IC50 (Alpha-amylase; read-out: IC50): 37.3 µM; Ki [3]: 7.38 µM
O=c1c(O)c(-c2ccc(O)c(O)c2)oc2cc(O)cc(O)c12 | inactive | inactive | inactive | – | –
O=C(/C=C/c1cc(O)ccc1O)c1ccccc1 | inactive | inactive | inactive | – | –
Nc1ccc(C(=O)/C=C/c2ccc(O)cc2)cc1 | – | – | – | 41 µM | IC50 (Beta-amylase): Not Active; IC50 (Alpha-amylase; read-out: IC50): 269 µM
Cc1ccc(S(=O)(=O)Nc2ccc(C(=O)/C=C/c3ccc(O)cc3)cc2)cc1 | – | – | – | 0.98 µM | IC50 (Beta-amylase; read-out: IC50): 247 µM; IC50 (Alpha-amylase; read-out: IC50): 87.8 µM; Ki [3]: 0.58 µM
O=C(/C=C/c1ccc(O)cc1)c1ccc(O)cc1 | inactive | inactive | inactive | – | –
Oc1cc(O)c2c(c1)O[C@H](c1ccc(O)c(O)c1)[C@@H](O)C2 | inactive | inactive | inactive | – | –
Cc1ccc(S(=O)(=O)Nc2cccc(C(=O)/C=C/c3ccc(O)c(O)c3)c2)cc1 | – | – | – | 15.6 µM | IC50 (Beta-amylase; read-out: IC50): 24.8 µM; IC50 (Alpha-amylase; read-out: IC50): 16.8 µM; Ki [3]: 9.25 µM
Cc1ccc(S(=O)(=O)Nc2ccc(C(=O)/C=C/c3ccc(O)c(O)c3)cc2)cc1 | – | – | – | 0.4 µM | IC50 (Beta-amylase; read-out: IC50): 65 µM; IC50 (Alpha-amylase; read-out: IC50): 194 µM; Ki [3]: 0.24 µM
O=C(/C=C/c1cccc(O)c1O)c1ccccc1 | inactive | inactive | inactive | – | –
Oc1cc(O)c2c(c1)O[C@@H](c1ccc(O)c(O)c1)[C@H](O)C2 | inactive | inactive | inactive | – | –
Nc1cccc(C(=O)/C=C/c2ccc(O)c(O)c2)c1 | – | – | – | > 200 µM | IC50 (Beta-amylase): Not Active; IC50 (Alpha-amylase): Not Active
Nc1ccc(C(=O)/C=C/c2ccc(O)c(O)c2)cc1 | – | – | – | 62.1 µM | IC50 (Beta-amylase; read-out: IC50): 127 µM; IC50 (Alpha-amylase): Not Active
Nc1cccc(C(=O)/C=C/c2ccc(O)cc2)c1 | – | – | – | > 200 µM | IC50 (Beta-amylase; read-out: IC50): 206 µM; IC50 (Alpha-amylase): Not Active
C[C@H]1O[C@H](O[C@H]2[C@H](O)[C@@H](O)[C@@H](O[C@H]3[C@H](O)[C@@H](O)C(O)O[C@@H]3CO)O[C@@H]2CO)[C@H](O)[C@@H](O)[C@@H]1N[C@H]1C=C(CO)[C@@H](O)[C@H](O)[C@H]1O (stereo not given in full) [ACARBOSE] | – | – | – | 60.8 µM | –
O=c1c(O)c(-c2cc(O)c(O)c(O)c2)oc2cc(O)cc(O)c12 | inactive | inactive | inactive | – | –
O=C(/C=C/c1cccc(O)c1)c1ccc(O)cc1 | inactive | inactive | inactive | – | –
O=C(/C=C/c1ccccc1O)c1ccccc1 | inactive | inactive | inactive | – | –
